{
  "source": "patent US6465396B1",
  "about": "“Method to promote growth of a plant” (Nara Institute of Science and Technology, priority 1999, dated 2002)",
  "key": {"tabacco": {"system": "tabacco", "details": "FIG. 18", "quoted_text": "The seeds of tabacco (Nicotina tabacum L.: SRI) were used for the experiment. The plants were seeded under a vermiculight. They were grown under the light intensity of 150 μmol quanta/m^2·s. Normal leaves derived from the plant bodies of 4 to 6 weeks old were used for the experiments.\nIn the case of rice plant, a portion containing petiole was excised from the plant bodies and it was immersed into 10 ml of sample compound in a tube. It was incubated for 30 min at 25° C. under 150 μmol quanta/m^2·s of illumination. After administration of sample compounds, the leaves of rice were sliced and put in a chamber with diameter of 35 mm and the rate of oxygen generation (μmol O2/m^2·s) was estimated. In the case of other plants, a leaf disk with diameter of 35 mm was prepared prior to the experiment. […] After the administration, water in the leaf disk was excluded, the leaf was set in the chamber and the ability of photosynthesis was measured on the leaf. […]\nAfter measurement of rate of photosynthesis as described above, the air without carbon dioxide was introduced into the chamber and the light was illuminated at the intensity of 1600 μmol quanta/m^2·s for a certain period. […] The rate of oxygen generation was measured after this treatment and inhibition of photosynthetic ability caused by photo-oxidation damage was thus evaluated. […]"}, "kidney bean": {"system": "kidney bean", "details": "FIG. 19", "quoted_text": "The seeds of kidney bean (Phaseolus vulgaris L.: tsurunashiinngenn) were used for the experiments. The plants were seeded under a vermiculight. They were grown under the light intensity of 150 μmol quanta/m^2·s. Normal leaves derived from the plant bodies of 2 to 4 weeks old were used for the experiments.\nIn the case of rice plant, a portion containing petiole was excised from the plant bodies and it was immersed into 10 ml of sample compound in a tube. It was incubated for 30 min at 25° C. under 150 μmol quanta/m^2·s of illumination. […] After the administration, water in the leaf disk was excluded, the leaf was set in the chamber and the ability of photosynthesis was measured on the leaf. […]\nAfter measurement of rate of photosynthesis as described above, the air without carbon dioxide was introduced into the chamber and the light was illuminated at the intensity of 1600 μmol quanta/m^2·s for a certain period. […] The rate of oxygen generation was measured after this treatment and inhibition of photosynthetic ability caused by photo-oxidation damage was thus evaluated.\nTo estimate sanity of photo-system, the fluorescence originated from chlorophyl, the center of photo-system, was measured on rice under the same condition described above after photo-oxidation damage. […] The fluorescence was measured before and after photo-oxidation damage to estimate Fv/Fm value."}, "[1]": {"system": "rice (Oryza sativa L.: Hinihikari)", "test": "Photo-oxidation damage, photosynthetic ability as oxygen generation rate, rice leaves", "details": "for residual photosynthetic ability (oxygen generation rate): when control sample was reduced to 30%, concentration not given, FIG. 15"}, "rice plant bodies": {"system": "rice plant bodies", "test": "Plant growth test, rice", "format": "in vivo, Oryza sativa L.", "details": "2 weeks cultivation", "description": "The effect of formate salts addition observed on plant growth was investigated. The seeds of rice were sterilized and seeded into a glass tube (130 mm×40 mm I.D) containing medium described below. The contents of the medium are ½MS salt, 0.1% gellan gum and various concentrations of sodium formate. The pH was adjusted to 6.0 by addition of 1N sodium hydroxide and the medium was sterilized by autoclave treatment. […] After cultivation for 2 weeks under this condition, the extent of growth was estimated by measurement of length of the aerial part and wet weight of plant bodies."}, "[2]": {"system": "formate dehydrogenase (FDH)", "details": "root of rice cultivated in the presence of 1.4 mM formic acid, 25° C., two weeks; FIG. 12", "protocol": "Then the alteration of FDH activity by administration of formic acid was investigated. The rice plant bodies were cultivated in the presence or absence of 1.4 mM formic acid at 25° C. for two weeks. The aerial part and the ground part (root) was separated and the crude enzyme solution was prepared from each part. The enzyme solution was prepared to 1.5 mg/ml and FDH activities of the samples were measured. The FDH activity was measured using [^13C] formic acid as the substrate and detecting [^13C] CO2 in the supernatant by GC-MS."}, "FDH gene": {"system": "FDH gene", "details": "ground part (root) of rice; pretreatment with formic acid administration; FIG. 14", "quoted_text": "In the case of utilization for northern analysis, total RNA was isolated from leaf and root of rice cultivated under condition described above, using Isogen RNA purification kit (Nippon gene).\nRNA was prepared from the aerial part and the ground part (root) respectively and the northern analysis was performed on these samples. Forty μg of the total RNA was applied to each lane and electrophoresis was performed on 1% agarose gel (containing 2.2 M formaldehyde). The gel was charged for the capillary blotting using Hybond N+membrane (Amersham) using 20×SSC. The hybridization was performed according to instruction of AlkPhosDIREST (Amersham) and detection was performed using CDP-Star (Amersham). The FDH cDNA (open reading frame:1130 bp), amplified by PCR, was used as probe DNA."}, "[3]": {"system": "kidney bean (Phaseolus vulgaris L.: tsurunashiinngenn)", "details": "2 mM, FIG. 5", "protocol": "(§1) The plants were seeded under a vermiculight.\n(§2) Generation of oxygen was measured by clark type oxygen electrode. The cuvette (LD2/2 type), the oxygen electrode controller (CB 1-D3 type) and the light source (LS-2, Hansatec corp.) were adopted as components of the measuring device. The chamber of cuvette contained in this device is composed of combination of a chamber, capable of hermetically sealing with diameter of 35 mm and volume of 5 ml, and an oxygen electrode. As upper side of the chamber is transparent, arbitrary intensity of light can be illuminated. The plant body described above, after administration of formic acid, was enclosed in the chamber and sealed hermetically. It was illuminated using a halogen lamp as the light source, and the rate of oxygen generation was measured under the air containing 5% of carbon dioxide. Unless specified otherwise, the measurement was performed under the light adjusted to a intensity of 253 μmol quanta/m^2·s using a red filter or an attenuation filter. The oxygen generation was calculated by dividing the obtained value with the surface area of the leaf."}, "[4]": {"system": "tabacco (Nicotina tabacum L.: SRI)", "details": "2 mM, FIG. 6", "protocol": "as §1, §2"}},
  "note": "Read-outs that look alike come from different tables or passages of the source.",
  "data": [
    {"smiles": "CO", "note": "[methanol]", "values": [
      {"measurement": "reduction of Fv/Fm value caused by photo-oxidation damage", "setting": "rice; 25 mM or 50 mM, FIG. 17", "result": "significant inhibition"},
      {"measurement": "damage on photo-system by chlorophyl fluorescence analysis", "setting": "tabacco; 100 mM", "result": "significantly alleviated"},
      {"measurement": "damage on photo-system by chlorophyl fluorescence analysis", "setting": "kidney bean; 100 mM", "result": "significantly alleviated"},
      {"measurement": "photosynthetic ability under various light intensities after photo-oxidation damage", "setting": "[1]; methanol, especially under strong light illumination, FIG. 16", "result": "avoided photo-oxidation damage"},
      {"measurement": "residual photosynthetic ability (oxygen generation rate)", "setting": "[1]", "result": 70, "unit": "%"}
    ]},
    {"smiles": "O=C[O-].[Na+]", "note": "[sodium formate]", "values": [
      {"measurement": "growth promotion, wet weight of plant bodies", "setting": "rice plant bodies; 125 ppm in medium, FIG. 8", "result": 25, "unit": "%"},
      {"measurement": "growth promotion, length of aerial part", "setting": "rice plant bodies; 125 ppm in medium, FIG. 9", "result": 25, "unit": "%"},
      {"measurement": "growth promotion effect", "setting": "rice plant bodies; 1000 ppm in medium", "result": "disappeared"}
    ]},
    {"smiles": "O=C[O-].[Na+]", "note": "[formate salt]", "values": [
      {"measurement": "photosynthetic ability under various light intensities after photo-oxidation damage", "setting": "[1]; formate salt, strong light illumination (inclination not altered under weak light), FIG. 3", "result": "inhibited damage on photosynthetic ability under strong light illumination"},
      {"measurement": "residual photosynthetic ability (oxygen generation rate)", "setting": "[1]", "result": 60, "unit": "%"}
    ]},
    {"smiles": "O=CO", "note": "[formic acid]", "values": [
      {"measurement": "FDH activity compared to control group", "setting": "[2]", "result": "about twice"},
      {"measurement": "damage on photo-system by chlorophyl fluorescence analysis", "setting": "tabacco; 2 mM", "result": "potency"},
      {"measurement": "damage on photo-system by chlorophyl fluorescence analysis", "setting": "kidney bean; 2 mM", "result": "potency"},
      {"measurement": "expression of FDH gene", "setting": "FDH gene", "result": "significant increase"}
    ]},
    {"smiles": "O=CO", "note": "[formate]", "values": [
      {"measurement": "damage on photo-system (Fv/Fm) caused by photo-oxidation damage", "setting": "rice; 2 mM, FIG. 7", "result": "avoided"}
    ]},
    {"smiles": "O=C[O-].[K+]", "note": "[potassium formate, Potassium formate]", "values": [
      {"measurement": "effect on oxygen generation rate reduction caused by photo-oxidation damage", "setting": "[3]", "result": "exhibited inhibition"},
      {"measurement": "effect on oxygen generation rate reduction caused by photo-oxidation damage", "setting": "[4]", "result": "exhibited inhibition"},
      {"measurement": "dose-dependency of protection on photo-oxidation damage", "setting": "[1]; 2 mM or 4 mM, FIG. 4", "result": "optimum protection"},
      {"measurement": "oxygen generation activity retained after photo-oxidation damage", "setting": "[1]; 2 mM, 8 min strong light illumination in the absence of carbon dioxide, control reduced to about 30%, FIG. 1", "result": 90, "unit": "%"},
      {"measurement": "time course of damage on photosynthetic ability", "setting": "[1]; 2 mM, photo-oxidation damage treatment 2 min, 4 min, FIG. 2", "result": "the damage on photosynthetic ability was inhibited"}
    ]}
  ]
}
